US7998932B2, “Inhibition of angiogenesis by neutrophil alpha-defensins” (The Trustees of the University of Pennsylvania, priority 2003, dated 2011)

Tested on: HUVEC
Test: HUVEC proliferation by BrdU incorporation
Type: cell-based, human
Details: over a period of 24 hours; 10 ng/ml VEGF or 1 μM sphingosine-1-phosphate
Description: Cell proliferation: Endothelial cell proliferation was determined by measuring the incorporation of bromodeoxyuridine (BrdU). Endothelial cells were plated onto 96-well plates and incubated for 12 hours after which the medium was changed to MCDB-131 containing 0.05% FCS. Cells were then incubated for 24 hours in the absence or presence of stimuli or competitors. BrdU was added to the medium during the last 6 hours of incubation. The cells were then fixed and cell proliferation was quantified with a standardized calorimetric immunoassay (Roche Diagnostics, Mannheim, Germany) according to the manufacturer's instructions.

Compound | increase of DNA synthesis in HUVEC
CCCCCCCCCCCCC/C=C/[C@@H](O)[C@@H](N)COP(=O)(O)O [sphingosine-1-phosphate] | approximately two-fold
VEGF | approximately two-fold
